According to a melting point compilation (Tetko et al.; mined from patent text by program, amines drawn as free bases though some values may be those of a salt):
Residues, ends and D or L forms follow the SMILES beside them. *: point of attachment. Cbz = O=C(OCc1ccccc1)*

| SMILES | melting point |
| --- | --- |
| Nc1cc(O)c(C(=O)NCC2CN(Cc3ccccc3)CCO2)cc1Cl (stereo not drawn) | 153 to 155 °C |
| COc1cc(OC)nc(C(=O)O)n1 | 155 to 157 °C |
| CC(CNC(=O)Cc1ccccc1)Oc1ccccc1 (stereo not drawn) | 94 to 96 °C |
| CCNC(=O)c1ccc(N2CCN(Cc3cnc4c(c3)[nH]c(=O)n3cccc43)CC2)c(C)c1 | 255 to 258 °C |
| O=[N+]([O-])c1ccc(Nc2ccccc2)s1 | 186 °C |
| Cc1cc(CCCCCCCOc2ccc(C(=O)N(C)C)cc2)on1 | 58 to 59 °C |
| CCOC(=O)Cc1ccccc1N(C(=O)CNC(=O)Nc1cccc(C)c1)c1ccccc1 | 120 °C |
| COc1ccc(CCCON2CCC(C(=O)c3nc4ccccc4s3)CC2)cc1 | 114 to 115 °C |
| CON(C)S(=O)(=O)c1ccccc1[N+](=O)[O-] | 105 to 106 °C |
| O=C1Nc2cc(-c3ccco3)ccc2C2CCCC12F (stereo not drawn) | 203 to 206 °C |
| O=C(O)CCc1cc(Br)c(OC(=O)c2c3ccccc3nc3ccccc23)c(Br)c1 | 240 to 242 °C |
| CCOC(=O)c1ccc(NCCCCCCOc2ccc3ccccc3c2)cc1 | 109 to 110 °C |
| O=C(Oc1ccccc1)c1cc([N+](=O)[O-])c2ccccc2c1O | 157 °C |
| O=C(CC1C(=O)CCc2ccccc21)c1ccccc1 (stereo not drawn) | 48 to 52 °C |
| Cc1cccc(N)c1CNc1cccn2c(C=O)c(C)nc12 | 230 to 234 °C |
| CCOC(=O)c1cc2ccccc2n1CC1CC(=O)N(Cc2ccccc2)C1 (stereo not drawn) | 93 to 94 °C |
| CC(C#N)(c1ccc(F)cc1)c1ccc(N2NCC(=O)NC2=O)cc1Cl (stereo not drawn) | 122 °C |
| CN1Cc2c(-c3noc(CN4CCCCC4)n3)ncn2-c2ccc(F)cc2C1=O | 182 to 184 °C |
| OC(c1ccccc1)C(CN1CC=C(c2ccc(Cl)cc2)CC1)c1ccccc1 (stereo not drawn) | 135 to 137 °C |

| SMILES | melting point |
| --- | --- |
| CC(=O)N1C(C)(C)CC(Oc2nc(Cl)nc(N3C(C)(C)CCCC3(C)C)n2)CC1(C)C | 114 to 116 °C |
| COc1cccc(NC(=O)NC2N=C(c3ccc(C)cc3)c3ccccc3N(C)C2=O)c1 (stereo not drawn) | 240 to 242 °C |
| CCN(CC)CCOc1ccc(C#Cc2ccc(OC)cc2)cc1 | 59 to 60 °C |
| O=S(=O)(CC(Cl)(c1ccccc1)c1cc(Cl)ccc1Cl)CC(Cl)(c1ccccc1)c1cc(Cl)ccc1Cl (stereo not drawn) | 136 °C |
| COc1cc([N+](=O)[O-])ccc1CBr | 94 to 96 °C |
| Cc1ccc(S(=O)(=O)C(C)(C)C(=O)c2ccccc2)cc1 | 64 to 64.5 °C |
| COc1cc(C2(OC)CCOCC2)ccc1OCc1ccc2ccccc2c1 | 129 °C |
| CCOC(=O)c1cc2cc([N+](=O)[O-])cc(CC)c2o1 | 114 to 116 °C |
| CCOC(=O)C(N=CC1C=C(Cl)C=CC1(OC(C)=O)c1ccccc1)C(=O)OCC (stereo not drawn) | 85 to 87 °C |
| COc1cc(Cl)ccc1NC(=O)C(C)(C)C | 66 to 69 °C |
| CCCc1c(-c2ccc(C(=O)OC)cc2)oc2cc(NC(C)=O)ccc2c1=O | 244 °C |
| CN(C)S(=O)(=O)c1ccc2c(c1)CNc1ccccc1O2 | 99 to 102 °C |
| Cc1nc(-c2ccc(Cl)cc2)oc1COC(C)(C)C(=O)O | 166 to 167 °C |
| COc1cccc(Oc2ccc([N+](=O)[O-])cc2C#N)c1 | 102 to 104 °C |
| Oc1ccc(Cl)c2c1CCCC2 | 58 to 59 °C |
| Cc1ccc(NC(=O)c2ccc(CN(C)C)c(C(F)(F)F)c2)cc1-c1ccc2cnncc2c1 | 240 to 241 °C |
| Nc1nc2c(ncn2OC(CO)CCOCP(=O)(O)O)c(=O)[nH]1 (stereo not drawn) | 188 to 192 °C |
| CCOC(=O)c1cc(-n2c(=O)[nH]c3c(c2=O)CCCC3)ccc1Cl | 196 to 198 °C |
| CCCCc1oc2ccccc2c1-c1ccc(-c2ccc(O)cc2)cc1 | 128 to 129 °C |

| SMILES | melting point |
| --- | --- |
| Oc1ccc(Nc2nccc(-c3cccnc3)n2)cc1 | 223 to 225 °C |
| COC(=O)C1(C)CCCC2(C)c3c(OC)cc(C(C)C)c(OC)c3CCC12 (stereo not drawn) | 133 to 135 °C |
| O=C(O)[C@@H]1CCCN1C(=O)C1CCCC1S (stereo partly drawn) | 97 °C |
| O=CN1C(=O)c2ccccc2OC1C(Cl)(Cl)Cl (stereo not drawn) | 114 °C |
| CC(C(O)c1cc(F)c(OCc2ccccc2)c(F)c1)N1CCC(O)(c2ccc(C(F)(F)F)cc2)CC1 (stereo not drawn) | 201 to 202 °C |
| COc1ccccc1N1CCN(CCCN2C(=O)c3ccccc3C2=O)CC1 | 85 to 93 °C |
| C#CC1(OC(C)=O)CCC2C3CC(=C)C4=CC(=O)CCC4(C)C3CCC21C (stereo not drawn) | 158 to 160 °C |
| S=C=NC1(Br)C=Cc2nccnc2C1 (stereo not drawn) | 157 to 158 °C |
| CCOC(C)=C(C#N)C(=O)Nc1ccccc1C | 179 to 181 °C |
| C=CC(C)(C)C(=O)COc1ccc(-c2ccccc2)cc1 | 42 to 44 °C |
| COc1cc(SC)c(C)cc1OCCBr | 66 to 67 °C |
| Cc1cc(-c2ccc3ncc(N)nc3c2)cc(C)c1O | 256 °C |
| O=C(NC1CCCCC1)c1c(O)c2cc(F)ccc2n(Cc2ccc(F)cc2)c1=O | 118 °C |
| CC(O)C(C)(C)c1cc(Cn2cncn2)cc(C(C)(C)C#N)c1 (stereo not drawn) | 83 to 84 °C |
| CCC(CC)Sc1cc2c(cc1Cl)N=C(C(N)=O)NS2(=O)=O | 287 to 289 °C |
| O=c1nc(NO)ccn1C1OC(CO)C(O)C1O (stereo not drawn) | 173 to 176 °C |
| O=C1Nc2ccccc2CC(C(=O)Nc2ccc(Br)cc2)C1=O (stereo not drawn) | 226 to 228 °C |
| O=c1[nH]c2cc(I)ccc2n(CP(=O)(O)O)c1=O | 295 to 297 °C |

Now from value to compound:

| melting point | SMILES |
| --- | --- |
| 162 to 163 °C | Cc1cn(Cc2ccc(F)cc2)cc1C(=O)CC(=O)C(=O)O |
| 129 to 131 °C | CCOC(=O)C(O)C(Oc1ccccc1[N+](=O)[O-])c1ccccc1 (stereo not drawn) |
| 127 to 128 °C | CCOC(=O)c1cc(Cl)cc2c(=O)c(C)c(-c3ccccc3)oc12 |
| 178 to 182 °C | CCCCNC(=O)C(C)CC(O)C1C[C@H](C)CCCCCCNc2cc(cc(OC)n2)C(=O)N1 (stereo partly drawn) |
| 345 °C | Cc1c(O)ccc2c(=O)c(-c3ccc([N+](=O)[O-])cc3)coc12 |
| 97 to 106 °C | CCN1C(=O)C(C)(C)C(=O)N(C)c2cc(OCCCn3cc(I)c(=O)c4ccccc43)ccc21 |
| 118 to 119 °C | CN1CC(c2nccc(CCc3ccccc3)n2)=C(O)C1=O |
| 104 to 105 °C | CCN1c2ncc(Cc3cccc(F)c3)cc2C(=O)N(C)c2ccc(Cl)nc21 |
| 334 to 335 °C | CC1(C)C(=O)Nc2ccc(C3=NNC(=O)C4CC34)cc21 (stereo not drawn) |
| 178 to 180 °C | N#Cc1ccc2c(c1)N(C1CC1)CNS2(=O)=O |
| 186 °C | Cc1cc(-n2c(=O)cc(C(F)(F)F)[nH]c2=O)c(F)cc1Br |
| 78 to 80 °C | COc1c(Cl)nc(-c2ccccc2)nc1Cl |
| 220 to 222 °C | Nc1nc(N)c2cc(Cc3ccccc3Cl)ccc2n1 |
| 148 to 149 °C | CCOC(=O)C1=C(C)Nc2snc(CCN3CCN(c4ccccc4)CC3)c2C1c1cccc([N+](=O)[O-])c1 (single isomer, unassigned; (+)) |
| 175 °C | N=C(N)NCCCC(NC(=O)C1CCCN1C(=O)C(CCCCNC(=O)OCc1ccccc1)NC(=O)CNC(=O)OCc1ccccc1)C(=O)O (stereo not drawn) (Cbz-GK(Cbz)PR-OH; configuration not given here) |
| 157 to 158 °C | CCCCC#CCCOc1cc(/C=C/C(=O)Nc2ccccc2C(=O)O)ccc1OC |
| 73 to 74 °C | C=CCn1cnc2c1c(=O)n(CCC(C)C(C)=O)c(=O)n2C (stereo not drawn) |
| 135 °C | Cc1cc(NCCO)c2[nH]nc(-c3ccccc3)c2n1 |
| 103 to 105 °C | CCCCN(C)C(=O)CSCCCCCCOc1ccc(C2=C(c3ccccc3)CCCc3cc(O)ccc32)cc1 |
| 230 °C | COc1ccc(N2CCN(c3ccc(-n4c(C)nn(CC(=O)c5ccc(Cl)cc5)c4=O)cc3)CC2)cc1 |
| 56 to 58 °C | CN(C)S(=O)(=O)c1cc2c(c(Cl)c1Cl)OC(C(=O)OCC(=O)OC(c1ccccc1)c1ccccc1)C2 (stereo not drawn) |

| melting point | SMILES |
| --- | --- |
| 218 to 220 °C | CC(=O)Nc1cnn2c1-c1ccccc1N(C(C)=O)C2C (stereo not drawn) |
| 181 to 182 °C | COc1ccc(-c2c(Cl)ncnc2NS(=O)(=O)c2ccc(C(C)C)cc2)cc1 |
| 233 to 237 °C | CS(=O)(=O)Nc1cccc(Nc2nc(NCCN3CCOCC3)c3nc[nH]c3n2)c1 |
| 145 °C | O=C1c2ccccc2C(=O)c2c(NC3CCCCC3)cccc21 |
| 113 to 116 °C | CC(C)(C)OC(=O)NCc1ccc(C(=O)NCCC(=O)OCc2ccccc2)cc1 |
| 224 to 225 °C | CN(C)Cc1ccc(C=CC(=O)O)s1 |
| 83 to 86 °C | CC(=O)Oc1ccc(C(=O)Nc2cccc(OCc3cncc4ccccc34)c2)cc1C(C)(C)C |
| 241 to 245 °C | COc1ccc(Nc2c([N+](=O)[O-])cc([N+](=O)[O-])c(Cl)c2C(=O)O)cc1 |
| 194 to 195 °C | COc1ccc2cc(-c3cc4ccccc4o3)ccc2c1 |
| 144 to 146 °C | CCn1c2ccccc2c2c3c(ccc21)c(C=O)cn3C |
| 188 to 189 °C | O=C1NC(=O)C(Cc2ccc(OCCN3CCOCC3)cc2)S1 (stereo not drawn) |
| 111 to 114 °C | Fc1ccc(C2=CCC(N3CCN(Cc4ccc5ccccc5n4)CC3)CC2)cc1 (stereo not drawn) |
| 74 to 75 °C | COc1ccc2cc(C(=O)[C@H](C)OS(=O)(=O)c3ccccc3)ccc2c1 |
| 142 to 144 °C | O=C(CNC(=O)c1ccc([N+](=O)[O-])c(F)c1)OCC(Cl)(Cl)Cl |
| 113 °C | O=c1[nH]c(=O)n(COC(CO)CO)cc1Cc1cccc(OCc2ccccc2)c1 |
| 46 to 47 °C | CCOC(=O)c1nc(C(C)(C)C)nc2ccccc12 |
| 76 to 80 °C | CC(=O)Nc1cccn(CC(=O)NC(C(=O)C(F)(F)F)C(C)C)c1=O (stereo not drawn) |
| 157 to 158 °C | CCN1C(=O)C(C)(C)C(=O)N(C)c2cc(CN(CCn3ccc4oc(C)cc4c3=O)Cc3ccccc3C=O)ccc21 |
| 71 to 73 °C | O=P(CN(O)CP(=O)(OCc1ccccc1)OCc1ccccc1)(OCc1ccccc1)OCc1ccccc1 |
| 93 to 94 °C | CCC(Oc1cc(C)cc(C)c1)C(=O)NCc1ccccc1 (stereo not drawn) |
| 143 to 144 °C | CCN(C=NS(=O)(=O)NC(=O)Nc1nc(OC)cc(OC)n1)CSC |
